Source: patent publication US10111847B2, “Compounds and methods for modulating vascular injury” (The Regents of the University of California, priority 2012, dated 2018)

Experiments:
Type in all cases: cell-based, human
TNF-α-stimulated VSMC = experiment: Static monocyte (U937) adhesion assay, TNF-α-stimulated VSMC (RvD); settings: U937 monocytes; TNF-α 10 ng/ml 4 hours; peak inhibition at 10 nM
Excerpt: (§1) Primary cultures of human greater saphenous vein smooth muscle cells (hVSMC) are isolated from saphenous vein discarded at the time of bypass operation in an Institutional Review Board-approved protocol as described by Conte et al. “Regulation of vein graft hyperplasia by survivin, an inhibitor of apoptosis protein.” Arterioscler Thromb Vasc Biol. 2005; 25:2081-2087. VSMCs are maintained in Dulbecco's modified Eagle's medium (DMEM Low Glucose) (HyClone Laboratories Inc, Logan, Utah) containing 10% fetal bovine serum (FBS) (Invitrogen Life Technologies, Grand Island, N.Y.) and used between passages 2-5. Endothelial cells were maintained in Medium 199 supplemented with EBSS (Hyclone Laboratories, Logan, Utah, USA) and Endothelial Cell Growth Supplement. Cells between passages 3-8 were used for the experiments.
(§2) RvD. […] Fluorescence measurements (excitation 494 nm, emission 517 nm) of bound monocytes are made with plate reader (Spectra Max M2, Molecular Devices, LLC, Sunnyvale, Calif.).
FIG. 1: RvD1 and RvD2 attenuate cell adhesion, proliferation, and migration responses of human VSMC in-vitro. […] Results are shown as relative percent inhibition, expressed as a percentage of the maximal adhesion for the agonist (n=6, results are mean±SEM, **P<0.01, *P<0.05, unpaired t-test). […] Results are expressed as percentage change in migration from unstimulated control (no PDGF). […]

VSMC = experiment: MTT cell viability assay; settings: 1-100 nM for 8 hours
Procedure: Cells are plated onto 24-well plates and treated with or without RvD1 or RvD2 (1, 10, and 100 nM) for 8 hours. MTT viability assay is performed per manufacturer's instructions (TOX1 assay, Sigma).
FIG. 8: Cell viability is not affected by RvD1 or RvD2. Cells were treated with or without RvD1 or RvD2 (1, 10, and 100 nM) for 8 hours.

[1] = system: TNF-α, IL-1β, MCP-1, IL-6, and IL-1α; experiment: TNF-α-stimulated inflammatory cytokine gene expression in VSMC by qRT-PCR; settings: 0.1 nM or 10 nM, greatest attenuation in IL-1β
Procedure: Cells are plated onto 6-well plates at 100% confluency in DMEM plus 10% FBS and allowed to attached overnight. Cells are then made quiescent by placing in serum-free media for 48-72 hours prior to start of experiments. Cells are treated with or without RvD1 or RvD2 at the indicated concentrations for one hour followed by co-incubation with cytokine (TNF-α 10 ng/ml) for up to 18 hours. In a separate set of experiments to examine the role of G-protein receptors, VSMCs are exposed to TNF-α and RvD2 (10 nM) as described above, in the presence or absence of pertussis toxin (PTX 100 ng/ml). Total RNA from rabbit sample or cells is isolated with PureLink RNA Mini kit (Ambion Life Technologies, Carlsbad, Calif.) with RNase-free DNase treatment according to manufacturer's protocol. One microgram of total RNA (from either VSMC or rabbit tissue) is used to generate cDNA using High Capacity cDNA Reverse Transcription Kit (Applied Biosystems, Foster City, Calif.) for subsequent RT-PCR reactions. Sybrgreen Amplified DNA is detected by incorporation SYBR Green (Qiagen, Germantown, Md.). Dissociation curve analyses are performed to confirm the specificity of the SYBR Green signal. Data is normalized to at least two reference genes. […]
FIG. 2: RvD1 and RvD2 reduce pro-inflammatory gene expression in VSMC. […] Expression of the cell adhesion molecules VCAM-1 (A) and ICAM-1 (B) was measured by qRT-PCR. […]

IL-1β-stimulated VSMC = experiment: Static monocyte (U937) adhesion assay, IL-1β-stimulated VSMC (RvD); settings: IL-1β 1 nM 4 hours; 0.01-100 nM
Excerpt: as §1, §2
FIG. 6: RvD1 and RvD2 modulate cell adhesion response of human VSMC to IL-1β. […] Results are shown as relative percent inhibition, expressed as a percentage of the maximal adhesion for the agonist (n=6, results are mean±SEM, **P<0.01, *P<0.05, unpaired t-test).

Row | SMILES | maximum % inhibition of monocyte adhesion (TNF-α-stimulated VSMC) [%] | loss of cell viability (MTT cytotoxicity assay) (VSMC) | expression of multiple inflammatory cytokines including TNF-α, IL-1β, MCP-1, IL-6, and IL-1α [1] | inhibition of monocyte adhesion (U937) to IL-1β-stimulated VSMC (IL-1β-stimulated VSMC)
1 | CC/C=C\C[C@H](O)/C=C/C=C\C=C\C=C\[C@@H](O)[C@@H](O)C/C=C\CCC(=O)O [RvD1, Resolvin D1] | 36 | did not display significant loss of cell viability | broad, significant reduction | dose-dependent inhibition
2 | CC/C=C\C[C@H](O)[C@H](O)/C=C/C=C/C=C\C=C\[C@@H](O)C/C=C\CCC(=O)O [RvD2, resolvin D2] | 41 | did not display significant loss of cell viability | broad, significant reduction | dose-dependent inhibition
